Key:
[1] = Dissolution kinetics of vinflunine in pH 6.8 buffer; format: physicochemical; conditions: equivalent to 50 mg vinflunine in 50 ml pH 6.8 buffer, 400 rpm
Procedure: In a 100 ml Erlenmeyer, introduce an accurately measured test sample equivalent to 50 mg of vinflunine. Add 50 ml of pH 6.8 buffer. Place under magnetic stirring at 400 rpm. Take a 2 ml sample under magnetic stirring at 15, 30, 60 and 120 minutes. Filter these samples on Gelman GHP Acrodisc 0.45 μm polypropylene filters. The solution should be clear.
Determine the vinflunine content by means of liquid chromatography.

[2] = Exploratory Pk on rats, oral route (bioavailability)
Procedure: The study was conducted with exploratory Pk on rats: 2 mg/kg in a single dose, oral route
Administration vehicle: distilled water (Aguettant)
Positive more Electrospray (ESI+) detection LC/MS/MS (liquid chromatography/mass spectrometry/mass spectrometry) bioanalysis method
Pharmacokinetic analysis with Kinetica (Thermo Instruments, US)

[3] = Dissolution kinetics of ketoprofen in water at 37° C.; format: physicochemical; conditions: equivalent to 50 mg ketoprofen in 50 ml water, 400 rpm
Procedure: In a 100 ml Erlenmeyer, introduce an accurately measured test sample equivalent to 50 mg of ketoprofen, pure or impregnating the cross-linked PVP. Add 50 ml of water. Place under magnetic stirring at 400 rpm in a water bath at 37° C.+/−2° C. […] Filter these samples on Gelman GHP Acrodisc 0.45 μm polypropylene filters. The solution should be clear.
Determine the ketoprofen content by means of liquid chromatography.

**Q.** With `CC[C@]12C=CCN3CC[C@@]4(c5cc([C@@]6(C(=O)OC)C[C@@H]7C[C@@H](C(C)(F)F)CN(Cc8c6[nH]c6ccccc86)C7)c(OC)cc5N(C)[C@H]4[C@@](O)(C(=O)OC)[C@@H]1OC(C)=O)[C@@H]32` [Vinflunine base, Vinflunine] as the compound, how does the “Vinflunine Dissolution 15 min” value ([1]; 15 min) read?
**A.** 252 µg/mL

**Q.** What about the “Vinflunine Dissolution 30 min” value ([1]; 30 min) of the same compound?
**A.** 387 µg/mL

**Q.** What about the “Vinflunine Dissolution 60 min” value ([1]; 60 min) of the same compound?
**A.** 520 µg/mL

**Q.** What about the “Vinflunine Dissolution 120 min” value ([1]; 120 min) of the same compound?
**A.** 606 µg/mL

**Q.** What about the CL ([2]; fasted rats, 2 mg/kg single dose, oral route) of the same compound?
**A.** 8.70 L/h

**Q.** What about the “Vinflunine level at 0” value ([2]; fasted rats, 2 mg/kg single dose, oral route, time 0) of the same compound?
**A.** 0

**Q.** What about the “Vinflunine level at 0.25” value ([2]; fasted rats, 2 mg/kg single dose, oral route, time 0.25) of the same compound?
**A.** 19.37

**Q.** And the “Vinflunine level at 0.5” value ([2]; fasted rats, 2 mg/kg single dose, oral route, time 0.5)?
**A.** 11.75

**Q.** And the “Vinflunine level at 1” value ([2]; fasted rats, 2 mg/kg single dose, oral route, time 1)?
**A.** 17.90

**Q.** What about the “Vinflunine level at 2” value ([2]; fasted rats, 2 mg/kg single dose, oral route, time 2) of the same compound?
**A.** 14.93

**Q.** And the “Vinflunine level at 4” value ([2]; fasted rats, 2 mg/kg single dose, oral route, time 4)?
**A.** 13.80

**Q.** And the “Vinflunine level at 6” value ([2]; fasted rats, 2 mg/kg single dose, oral route, time 6)?
**A.** 12.03

**Q.** And the “Vinflunine level at 8” value ([2]; fasted rats, 2 mg/kg single dose, oral route, time 8)?
**A.** 10.88

**Q.** What about the “Vinflunine level at 24” value ([2]; fasted rats, 2 mg/kg single dose, oral route, time 24) of the same compound?
**A.** 2.59

**Q.** And the AUC(0-t) ([2]; rat, in vivo, po, 2 mg/kg)?
**A.** 200 ng·h/mL

**Q.** What about the Cmax ([2]; rat, in vivo, po, 2 mg/kg) of the same compound?
**A.** 19.4 ng/mL

**Q.** What about the Tmax ([2]; rat, in vivo, po, 2 mg/kg) of the same compound?
**A.** 0.25 h

**Q.** What about the half-life ([2]; rat, in vivo, po, 2 mg/kg) of the same compound?
**A.** 7.9 h

**Q.** With `CC(C(=O)O)c1cccc(C(=O)c2ccccc2)c1` (centres unmarked) [ketoprofen, Ketoprofen] as the compound, how does the “Ketoprofen Dissolution 15 min” value ([3]; 15 min) read?
**A.** 173 µg/mL

**Q.** And the “Ketoprofen Dissolution 60 min” value ([3]; 60 min)?
**A.** 171 µg/mL
